# Values joined by “and” are separate entries in the source; they are usually repeats but may differ in a detail not shown here. Identical values can stand only once.
# Key:
# [1] = Cytotoxicity assay (CellTiter-Glo, 72 h), SKOV-3; format: cell-based, human; details: human, raw replicate data, read-out: SKOV3 viability (%)
# In short: (§1)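 Following 4 h attachment at 1000 cells/well, the three lines received serially halved compound doses (DMSO 0.5%) for 72 h at 37 °C under 5% CO2, with cell viability then determined by CellTiter-Glo.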
# [2] = tested on: human ovarian adenocarcinoma SKOV-3 cells; test: Cytotoxicity assay (CellTiter-Glo, 72 h), SKOV-3; format: cell-based; details: raw replicate data
# In short: as §1
# [3] = Cytotoxicity assay (CellTiter-Glo, 72 h), MESO-1; format: cell-based; details: human, MESO-1 malignant pleural mesothelioma cells, raw replicate data, read-out: MESO1 viability (%)
# In short: as §1
# [4] = tested on: malignant pleural mesothelioma MESO-1 cells; test: Cytotoxicity assay (CellTiter-Glo, 72 h), MESO-1; format: cell-based; details: raw replicate data
# In short: as §1
# [5] = tested on: Jurkat, SKOV-3 and MESO-1 cells; test: Cytotoxicity assay, statements for all tested cell lines together; format: cell-based; details: Jurkat, SKOV-3 and MESO-1 cells, 72 h
# In short: as §1
# [6] = target: T1, FKBP12 and mTOR (Homo sapiens, UniProt P42345+P62942); test: Fluoppi analysis: induction of FKBP12-mTOR complex formation in transfected HeLa cells; format: cell-based; details: for Foci intensity: raw data, one replicate per line
# T1 construct: host or cells: HeLa cells
# T1 sequence (P42345 2025-2114 limits assumed): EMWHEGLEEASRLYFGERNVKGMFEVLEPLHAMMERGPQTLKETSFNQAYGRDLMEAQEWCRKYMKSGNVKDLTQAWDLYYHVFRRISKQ
# T1 sequence (P62942 whole entry): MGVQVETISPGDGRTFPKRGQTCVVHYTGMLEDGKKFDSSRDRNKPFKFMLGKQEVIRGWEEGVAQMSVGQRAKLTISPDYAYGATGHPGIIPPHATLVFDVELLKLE
# In short: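 Complex formation read as fluorescent foci: foci intensity over total per-cell intensity, imaged (×20, 9 fields/well) after fixation and Hoechst stain, giving EC50. Cells: HeLa transiently expressing hAG-mTOR and Ash-FKBP12, exposed to compound concentrations for 1 h at 37 °C.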
smiles,measurement,setting,value
COC1CC2CCC(C)C(O)(O2)C(=O)C(=O)N2CCCCC2C(=O)OC(C(C)CC2CCC(O)C(OC)C2)CC(O)CC(=O)C(C)C=C(C)C(O)CC(=O)C(C)CC(C)C=CC=CC=C1C (stereo not shown) [Compound 13],"viability at 72 h, 9.53674e-05 uM","[1]; SKOV-3 cells (ovarian adenocarcinoma), conc 9.53674e-5 uM",101%
same,"viability at 72 h, 0.000190735 uM","[1]; SKOV-3 cells (ovarian adenocarcinoma), conc 0.000190735 uM",105%
same,"viability at 72 h, 0.00038147 uM","[1]; SKOV-3 cells (ovarian adenocarcinoma), conc 0.00038147 uM",103%
same,"viability at 72 h, 0.000762939 uM","[1]; SKOV-3 cells (ovarian adenocarcinoma), conc 0.000762939 uM",104%
same,"viability at 72 h, 0.00152588 uM","[1]; SKOV-3 cells (ovarian adenocarcinoma), conc 0.00152588 uM",106%
same,"viability at 72 h, 0.00305176 uM","[1]; SKOV-3 cells (ovarian adenocarcinoma), conc 0.00305176 uM",104%
same,"viability at 72 h, 0.00610352 uM","[1]; SKOV-3 cells (ovarian adenocarcinoma), conc 0.00610352 uM",104%
same,"viability at 72 h, 0.012207 uM","[1]; SKOV-3 cells (ovarian adenocarcinoma), conc 0.012207 uM",100%
same,"viability at 72 h, 0.0244141 uM","[1]; SKOV-3 cells (ovarian adenocarcinoma), conc 0.0244141 uM",97.8%
same,"viability at 72 h, 0.0488281 uM","[1]; SKOV-3 cells (ovarian adenocarcinoma), conc 0.0488281 uM",100%
same,"viability at 72 h, 0.0976562 uM","[1]; SKOV-3 cells (ovarian adenocarcinoma), conc 0.0976562 uM",93.5%
same,"viability at 72 h, 0.195312 uM","[1]; SKOV-3 cells (ovarian adenocarcinoma), conc 0.195312 uM",80.1%
same,"viability at 72 h, 0.390625 uM","[1]; SKOV-3 cells (ovarian adenocarcinoma), conc 0.390625 uM",72.3%
same,"viability at 72 h, 12.5 uM","[1]; SKOV-3 cells (ovarian adenocarcinoma), conc 12.5 uM",74%
same,"viability at 72 h, 25 uM","[1]; SKOV-3 cells (ovarian adenocarcinoma), conc 25 uM",76.6%
same,"viability at 72 h, 50 uM","[1]; SKOV-3 cells (ovarian adenocarcinoma), conc 50 uM",61.1%
same,"viability at 72 h, 0.78125 uM","[1]; SKOV-3 ovarian adenocarcinoma cells, conc 0.78125 uM",70.5%
same,"viability at 72 h, 1.5625 uM","[1]; SKOV-3 ovarian adenocarcinoma cells, conc 1.5625 uM",74.6%
same,"viability at 72 h, 3.125 uM","[1]; SKOV-3 ovarian adenocarcinoma cells, conc 3.125 uM",67.3%
same,"viability at 72 h, 6.25 uM","[1]; SKOV-3 ovarian adenocarcinoma cells, conc 6.25 uM",76.1%
same,SKOV3 viability (%),[2]; conc 9.53674e-5 uM,107.4% and 106.9%
same,SKOV3 viability (%),[2]; conc 0.000190735 uM,98.8% and 103.7%
same,SKOV3 viability (%),[2]; conc 0.00038147 uM,108.6% and 110.4%
same,SKOV3 viability (%),[2]; conc 0.000762939 uM,108.3% and 103.9%
same,SKOV3 viability (%),[2]; conc 0.00152588 uM,101.0% and 99.9%
same,SKOV3 viability (%),[2]; conc 0.00305176 uM,105.3% and 103.9%
same,SKOV3 viability (%),[2]; conc 0.00610352 uM,110.1% and 106.3%
same,SKOV3 viability (%),[2]; conc 0.012207 uM,101.2% and 96.8%
same,SKOV3 viability (%),[2]; conc 0.0244141 uM,104.0%
same,SKOV3 viability (%),[2]; conc 0.0488281 uM,98.0% and 96.8%
same,SKOV3 viability (%),[2]; conc 0.0976562 uM,97.2% and 95.3%
same,SKOV3 viability (%),[2]; conc 0.195312 uM,69.7% and 74.1%
same,SKOV3 viability (%),[2]; conc 0.390625 uM,69.6% and 63.1%
same,SKOV3 viability (%),[2]; conc 0.78125 uM,63.6% and 66.9%
same,SKOV3 viability (%),[2]; conc 1.5625 uM,66.7%
same,SKOV3 viability (%),[2]; conc 3.125 uM,68.3% and 74.5%
same,SKOV3 viability (%),[2]; conc 6.25 uM,79.3% and 78.5%
same,SKOV3 viability (%),[2]; conc 12.5 uM,75.9%
same,SKOV3 viability (%),[2]; conc 25 uM,73.5% and 81.4%
same,SKOV3 viability (%),[2]; conc 50 uM,55.5% and 58.9%
same,"viability at 72 h, 9.53674e-05 uM",[3]; conc 9.53674e-5 uM,107%
same,"viability at 72 h, 0.000190735 uM",[3]; conc 0.000190735 uM,109%
same,"viability at 72 h, 0.00038147 uM",[3]; conc 0.00038147 uM,103%
same,"viability at 72 h, 0.000762939 uM",[3]; conc 0.000762939 uM,96.5%
same,"viability at 72 h, 0.00152588 uM",[3]; conc 0.00152588 uM,103%
same,"viability at 72 h, 0.00305176 uM",[3]; conc 0.00305176 uM,101%
same,"viability at 72 h, 0.00610352 uM",[3]; conc 0.00610352 uM,108%
same,"viability at 72 h, 0.012207 uM",[3]; conc 0.012207 uM,101%
same,"viability at 72 h, 0.0244141 uM",[3]; conc 0.0244141 uM,95.9%
same,"viability at 72 h, 0.0488281 uM",[3]; conc 0.0488281 uM,92.5%
same,"viability at 72 h, 0.0976562 uM",[3]; conc 0.0976562 uM,82%
same,"viability at 72 h, 0.195312 uM",[3]; conc 0.195312 uM,74.6%
same,"viability at 72 h, 0.390625 uM",[3]; conc 0.390625 uM,77.6%
same,"viability at 72 h, 0.78125 uM",[3]; conc 0.78125 uM,68.5%
same,"viability at 72 h, 1.5625 uM",[3]; conc 1.5625 uM,71.4%
same,"viability at 72 h, 3.125 uM",[3]; conc 3.125 uM,70.6%
same,"viability at 72 h, 6.25 uM",[3]; conc 6.25 uM,68.1%
same,"viability at 72 h, 12.5 uM",[3]; conc 12.5 uM,69.4%
same,"viability at 72 h, 25 uM",[3]; conc 25 uM,61.7%
same,"viability at 72 h, 50 uM",[3]; conc 50 uM,32.5%
same,MESO1 viability (%),[4]; conc 9.53674e-5 uM,98.4% and 101.6%
same,MESO1 viability (%),[4]; conc 0.000190735 uM,99.7% and 102.2%
same,MESO1 viability (%),[4]; conc 0.00038147 uM,106.9% and 102.5%
same,MESO1 viability (%),[4]; conc 0.000762939 uM,98.2% and 93.2%
same,MESO1 viability (%),[4]; conc 0.00152588 uM,104.8% and 103.9%
same,MESO1 viability (%),[4]; conc 0.00305176 uM,98.6% and 103.9%
same,MESO1 viability (%),[4]; conc 0.00610352 uM,105.0% and 100.2%
same,MESO1 viability (%),[4]; conc 0.012207 uM,91.1%
same,MESO1 viability (%),[4]; conc 0.0244141 uM,101.5% and 98.1%
same,MESO1 viability (%),[4]; conc 0.0488281 uM,89.5% and 85.7%
same,MESO1 viability (%),[4]; conc 0.0976562 uM,82.3% and 85.5%
same,MESO1 viability (%),[4]; conc 0.195312 uM,72.4% and 76.8%
same,MESO1 viability (%),[4]; conc 0.390625 uM,77.4% and 73.9%
same,MESO1 viability (%),[4]; conc 0.78125 uM,67.0% and 66.3%
same,MESO1 viability (%),[4]; conc 1.5625 uM,65.2% and 74.0%
same,MESO1 viability (%),[4]; conc 3.125 uM,66.5% and 63.4%
same,MESO1 viability (%),[4]; conc 6.25 uM,73.7% and 75.2%
same,MESO1 viability (%),[4]; conc 12.5 uM,72.5% and 66.5%
same,MESO1 viability (%),[4]; conc 25 uM,64.3% and 66.3%
same,MESO1 viability (%),[4]; conc 50 uM,29.9% and 28.1%
same,"Effect on cell viability, in words",[5],slightly suppressed the cell viabilities
same,"PPI-inducing (binding enhancing) activity between FKBP12 and mTOR compared with rapamycin (1), in words",[6]; Fluoppi,relatively weaker activities
same,EC50,"[6]; Fluoppi, HeLa cells, 1 h treatment, three independent biological replicates, read-out: EC50, induction of the formation of FKBP-mTOR complex",73 nM
same,Foci intensity,[6]; conc 9.53674e-5 uM,0.02036 and 0.008593 and 0.006167
same,Foci intensity,[6]; conc 0.000190735 uM,0.01432 and 0.008145 and 0.01977
same,Foci intensity,[6]; conc 0.00038147 uM,0.01002 and 0.01191 and 0.006949
same,Foci intensity,[6]; conc 0.000762939 uM,0.02361 and 0.0319 and 0.02031
same,Foci intensity,[6]; conc 0.00152588 uM,0.02629 and 0.01654 and 0.01268
same,Foci intensity,[6]; conc 0.00305176 uM,0.02214 and 0.02006 and 0.01134
same,Foci intensity,[6]; conc 0.00610352 uM,0.03874 and 0.01998 and 0.01509
same,Foci intensity,[6]; conc 0.012207 uM,0.01596 and 0.01655 and 0.01094
same,Foci intensity,[6]; conc 0.0244141 uM,0.04032 and 0.02924 and 0.04626
same,Foci intensity,[6]; conc 0.0488281 uM,0.1206 and 0.1281 and 0.1053
same,Foci intensity,[6]; conc 0.0976562 uM,0.3145 and 0.2601 and 0.1852
same,Foci intensity,[6]; conc 0.195312 uM,0.3854 and 0.3277 and 0.371
same,Foci intensity,[6]; conc 0.390625 uM,0.4069 and 0.3307 and 0.3864
same,Foci intensity,[6]; conc 0.78125 uM,0.4181 and 0.3809 and 0.3423
same,Foci intensity,[6]; conc 1.5625 uM,0.3991 and 0.3532 and 0.4458
same,Foci intensity,[6]; conc 3.125 uM,0.3573 and 0.4306 and 0.409
same,Foci intensity,[6]; conc 6.25 uM,0.3647 and 0.3805 and 0.3539
same,Foci intensity,[6]; conc 12.5 uM,0.3743 and 0.3421 and 0.396
same,Foci intensity,[6]; conc 25 uM,0.3317 and 0.3763 and 0.373
same,Foci intensity,[6]; conc 50 uM,0.3749 and 0.3065 and 0.4374

# Reference: PMC7419507, “In vitro Cas9-assisted editing of modular polyketide synthase genes to produce desired natural product derivatives” (Nature Communications, 2020)
